Measured values taken from patent US20240109852A1, “Ferroptosis-HDAC Inhibitor Hybrid Anticancer Agents” (The University of Toledo, priority 2022, published 2024).
Read-outs that look alike come from different tables or passages of the source.

Columns and labels:
[1] = tested on: hTERT-immortalized RPE cells (retinal pigment epithelial cells); test: Cell viability assay (methylene blue staining), RPE normal cells; assay type: cell-based, human
Protocol: (§2) Cell viability was assessed using methylene blue staining: cells were plated at 5000/well in 96 well plates (n=3) respectively and treated the next day. Three days after treatment cells were fixed/stained in methylene blue saturated in 50% ethanol for 30 min at RT. Plates were washed with excess water to wash off extra dye.

NCI-H522 cells = test: Time-lapse microscopy of cell death in NCI-H522 cells; assay type: cell-based, human; settings: for time from initiation of ferroptosis until most/all cells were dead: CETZOLE-1 20 μM (most cells), HY-1 5 μM (all cells); for time of initiation of ferroptosis after treatment: CETZOLE-1 20 μM, HY-1 5 μM
Protocol: For time lapse imaging, NCI-H522 cells were plated at ˜70% density and left overnight to adhere and pre-equilibrate to 10% CO2. The next day cells were treated with DMSO or inhibitors, and the flask was maintained sealed. Flasks were placed on a 37° C. heated stage on an inverted microscope. Images were captured every 12 min and for a total of 300 images using a ×40 microscope objective and an Olympus C740 digital camera controlled by AmScope software. Image analysis was done using Image J. For the Kaplan-Maier graphs at least 100 cells were counted and the event of cell death was measured on a time frame of either 1 h or 0.2 h.

[2] = tested on: SH-SY5Y cell line (human neuroblastoma); test: MTT cell viability assay on SH-SY5Y neuronal cells; assay type: cell-based; settings: for effect on neuronal cells (neurotoxicity), SH-SY5Y viability: 0.5×IC50, 1×IC50, 2×IC50 of the corresponding control on H522
Protocol: Human neuroblastoma cells (SH-SY5Y) were grown on poly-D-lysine coated plates and cultured in DMEM/F12 medium (HyClone, Thermo Scientific) containing 10% fetal bovine serum and 1% penicillin-streptomycin. Cells were maintained in a 37° C. incubator with a 5% CO2 atmosphere. Cells were seeded at a density of 15,000 cells in 96 well plates for 36 hr before treatment of drugs. […] G4102) according to the manufacturer's instructions. Cells were treated with amide series analogs for 24 hrs. Briefly, the cells were incubated with MTT reagent for 2 h at 37° C. incubator. Then, the solubilization/stop solution was added to solubilize the formazan products, incubated for 1 hr, and absorbance at 570 was measured using micro-plate reader (SynergyH1, BioTek, USA). DMSO was used a vehicle control. The experimental data represent the means±SD (*P<0.05) of triplicates from three separate experiments. The statistical significance was determined by one-way ANOVA and significant differences P<0.05, P<0.01, P<0.001, and P<0.0001 are symbolized as *, **, ***, and ****, respectively.

[3] = tested on: PC-12 (pheochromocytoma) cells; test: MTT cytotoxicity on undifferentiated and differentiated PC-12 cells; assay type: cell-based; settings: both non-differentiated and NGF-differentiated states
Protocol: Pheochromocytoma (PC-12) cells were grown on poly-D-lysine coated plates and cultured in DMEM/F12 medium (HyClone, Thermo Scientific) containing 5% fetal bovine serum, 5% horse serum, and 1% penicillin-streptomycin. Cells were maintained in a 37° C. incubator with a 5% CO2 atmosphere. Cells were seeded at a density of 15,000 cells per well in 96 well plates for 36 hr before treatment with the test compounds. The MTT assay was performed after 24 hr of treatment.
Pheochromocytoma (PC-12) cells were seeded on poly-D-lysine coated plates containing neuron differentiation medium (100 ng nerve growth factor, DMEM/F12, 5% fetal bovine serum, 5% horse serum, and 1% penicillin-streptomycin) and grown for 5 days to differentiate to neurons. Cells were maintained in a 37° C. incubator with a 5% CO2 atmosphere. Cells were trypsinized, and seeded at a density of 15,000 cells/well in 96 well plates with neuron differentiation medium for 36 hr before treatment with the test compounds. The MTT assay was performed after 24 hr of treatment.

[4] = tested on: NCI-60 human tumor cell lines; test: NCI-60 five dose assay, whole panel; assay type: cell-based
[5] = tested on: WI-38 cells (normal human lung fibroblasts); test: Cell viability assay (methylene blue staining), WI-38 normal cells; assay type: cell-based; settings: concentration of therapeutic relevance (2 μM), mesenchymal system
Protocol: as §2

[6] = tested on: lipid peroxides in NCI-H522 cells; test: C11-BODIPY lipid peroxidation assay (flow cytometry); assay type: cell-based, human; settings: NCI-H522, 10 μM, within 6 hours of treatment
Protocol: NCI-H522 cells (˜70% density) were plated on 7 cm dishes and let overnight to adhere. […] After 6 h, cells were washed with 1×PBS and collected by trypsinization and centrifugation. The cells were washed once with 1×PBS and resuspended in PBS containing 2% FBS. Cells were analyzed using a BD LSR Fortessa FACScanner and FlowJo software. For each sample 20×10^3 cells were analyzed.

[7] = tested on: NCI-60 human tumor cell lines; test: NCI-60 one dose assay, whole panel; assay type: cell-based; settings: compared to other hybrids, HDAC controls and SAHA
[8] = tested on: RPMI-8226 (leukemia cell line); test: NCI-60 five dose assay, RPMI-8226; assay type: cell-based; settings: Homo sapiens, RPMI-8226, read-out: GI50, RPMI-8226
[9] = tested on: NCI-H23 (NSC lung cancer cell line); test: NCI-60 five dose assay, NCI-H23; assay type: cell-based; settings: Homo sapiens
[10] = tested on: SF-539 cell line (CNS cancer); test: NCI-60 five dose assay, SF-539; assay type: cell-based; settings: Homo sapiens
[11] = tested on: LOXIMVI (melanoma cell line); test: NCI-60 five dose assay, LOXIMVI; assay type: cell-based; settings: Homo sapiens, LOX IMVI, read-out: GI50, LOXIMVI
[12] = tested on: IGROV-1 (ovarian cancer cell line); test: NCI-60 five dose assay, IGROV-1; assay type: cell-based; settings: Homo sapiens
[13] = tested on: PC-3 (prostate cancer cell line); test: NCI-60 five dose assay, PC-3; assay type: cell-based; settings: Homo sapiens, read-out: GI50, PC-3
[14] = tested on: DU-145 (prostate cancer cell line); test: NCI-60 five dose assay, DU-145; assay type: cell-based; settings: Homo sapiens
[15] = tested on: NCI-H522 human lung cancer cells; test: Cell viability assay (methylene blue staining), NCI-H522; assay type: cell-based; settings: NCI-H522, 72 h, read-out: IC50 ± SD (n = 3) on NCI-H522 cell line
Protocol: as §2

[16] = tested on: HCT116 human colorectal carcinoma cells; test: Cell viability assay (methylene blue staining), HCT-116; assay type: cell-based; settings: HCT-116, 72 h, read-out: IC50 ± SD (n = 3) on HCT-116 cell line
Protocol: as §2

[17] = tested on: acetyl-H3 (K9) (histones, HDAC class I substrate); test: Western blot, acetyl-H3 (K9) in NCI-H522 cells; assay type: cell-based, human; settings: NCI-H522, concentration of 5 μM
Text: (§1) Bound antibodies were detected using enhanced chemiluminescence (Biorad).

[18] = tested on: acetyl tubulin (class II, HDAC-6 substrate); test: Western blot, acetyl tubulin in NCI-H522 cells; assay type: cell-based, human; settings: NCI-H522, concentration of 5 μM
Text: as §1

[19] = tested on: HS578 (breast cancer cell line); test: NCI-60 five dose assay, HS578; assay type: cell-based; settings: Homo sapiens
[20] = tested on: NCI-H23 cell line (NSC-Lung cancer); settings: one dose; SAHA data from the public data base of NCI; cited from earlier work
[21] = tested on: DU-145 cells (prostate cancer); settings: one dose; SAHA data from the public data base of NCI; cited from earlier work

C#Cc1nc(C2=C(C)C(O)CC2)cs1 (centres unmarked) [CETZOLE-1, reference compound]
IC50 ([1]; normal RPE epithelial cells, FBS media (FIGS. 11A, 11C), read-out: IC50 on RPE (selectivity study)): > 30000 nM | time from initiation of ferroptosis until most/all cells were dead (NCI-H522 cells): ≤ 8 h | time of initiation of ferroptosis after treatment (NCI-H522 cells): approximately 12 hours

C#Cc1nc(C(=O)NCCCCCCC(=O)OC)cs1 [FC-1, Methyl 7-(2-ethynylthiazole-4-carboxamido)heptanoate]
effect on neuronal cells (neurotoxicity), SH-SY5Y viability [2]: significant neurotoxicity | sensitivity of differentiated and undifferentiated PC-12 cells [3]: resistant

O=C(CCCCCCNC(=O)c1csc(Br)n1)NO [HC-1, 2-Bromo-N-(7-(hydroxyamino)-7-oxoheptyl)thiazole-4-carboxamide]
effect on neuronal cells (neurotoxicity), SH-SY5Y viability [2]: very mild toxicity | GI50 ([4]; read-out: average GI50): 1510 nM

C#Cc1nc(C(=O)NCCCCCCC(=O)NO)cs1 [HY-1, 2-Ethynyl-N-(7-(hydroxyamino)-7-oxoheptyl)thiazole-4-carboxamide]
toxic effects on normal cells (WI-38) [5]: no toxic effects on normal cells | toxicity on normal cells (RPE) ([1]; concentration of therapeutic relevance (2 μM), epithelial system): no toxicity was observed on the normal cells | neurotoxic effects, SH-SY5Y viability ([2]; concentrations of therapeutic relevance (2.32 μM)): no neurotoxic effects | sensitivity of differentiated and undifferentiated PC-12 cells [3]: behaved like the HDAC control HC-1 | lipid peroxide levels (oxidized C11-BODIPY 581/591) [6]: increased levels of lipid peroxides | time from initiation of ferroptosis until most/all cells were dead (NCI-H522 cells): ≤ 2 h | time of initiation of ferroptosis after treatment (NCI-H522 cells): 8 h | cytotoxicity profile in the NCI-60 screen [7]: best cytotoxicity profile | GI50 ([4]; read-out: GI50 values as low as): ≥ 20 nM | GI50 ([4]; read-out: average GI50): 850 nM | GI50 [8]: 350 nM | GI50 ([9]; NCI-H23, read-out: GI50, NCI-H23): 780 nM | GI50 ([10]; SF-539, read-out: GI50, SF-539): 1000 nM | GI50 [11]: 20 nM | GI50 ([12]; IGROV-1, read-out: GI50, IGROV-1): 570 nM | GI50 [13]: 2000 nM | GI50 ([14]; DU-145, read-out: GI50, DU-145): 360 nM

C#Cc1nc(/C=C\CCCCCC(=O)NO)cs1 [HY-2, (Z)-8-(2-ethynylthiazol-4-yl)-N-hydroxyoct-7-enamide]
IC50 [15]: 1070 nM | IC50 [16]: 1190 nM | GI50 ([4]; read-out: average GI50): 2180 nM

C#Cc1nc(/C=C/CCCCCC(=O)NO)cs1 [HY-3, (E)-8-(2-ethynylthiazol-4-yl)-N-hydroxyoct-7-enamide]
IC50 [15]: 1590 nM | IC50 [16]: 4960 nM | GI50 ([4]; read-out: average GI50): 3390 nM

C#Cc1nc(/C=C/C=C/C(=O)NO)cs1 [HY-4, (2E,4E)-5-(2-ethynylthiazol-4-yl)-N-hydroxypenta-2,4-dienamide]
effect on neuronal cells (neurotoxicity), SH-SY5Y viability [2]: not showing attenuated neurotoxicity | cytotoxicity profile in the NCI-60 screen [7]: worst cytotoxicity profile

C#Cc1nc(/C=C/C(=O)NO)cs1 [HY-5, (E)-3-(2-ethynylthiazol-4-yl)-N-hydroxyacrylamide]
H3 hyperacetylation at 5 μM [17]: did not show any H3 hyperacetylation | tubulin hyperacetylation at 5 μM [18]: tubulin hyperacetylation | GI50 ([4]; read-out: average GI50): 2470 nM

COC(=O)CCCCCCNC(=O)c1csc(Br)n1 [NC-1, Methyl 7-(2-bromothiazole-4-carboxamido)heptanoate]
effect on neuronal cells (neurotoxicity), SH-SY5Y viability [2]: no effect

O=C(CCCCCCC(=O)Nc1ccccc1)NO [SAHA]
time after treatment at which cells were still alive (NCI-H522 cells; SAHA 5 μM): ≥ 60 h | GI50 ([4]; five dose assay, mean over approximately sixty cell lines, read-out: average GI50): 1210 nM | GI50 ([9]; NCI-H23, five dose assay, read-out: GI50, NCI-H23): 2000 nM | GI50 ([10]; SF-539, five dose assay, read-out: GI50, SF-539): 2000 nM | GI50 ([11]; five dose assay): 1250 nM | GI50 ([12]; IGROV-1, five dose assay, read-out: GI50, IGROV-1): 2000 nM | GI50 ([13]; five dose assay): 1580 nM | GI50 ([14]; DU-145, five dose assay, read-out: GI50, DU-145): 1250 nM | GI50 [19]: 2000 nM | Growth %, NCI-H23 (NCI public data base) [20]: 3.30% | Growth %, DU-145 (NCI public data base) [21]: 3.5%
